Data from patent US8937058B2, “17-hydroxy-19-nor-21-carboxylic acid-steroid γ-lactone derivative, use thereof, and medicament containing the derivative” (priority 2007, dated 2015).
Where two headings read alike, the source gives them in different places.

How the values were obtained:
[1] = target: T1, mineralocorticoid receptor (Homo sapiens (Human), UniProt P08235); experiment: Mineralocorticoid receptor binding test (displacement of 3H-aldosterone, cytosol from Hi5 insect cells); settings: reference substance 3H-aldosterone
Method: 2. Mineralocorticoid Receptor Binding Test:
The test was carried out as in 1., with the following modifications: cytosol from mineralocorticoid receptor-expressing insect cells (Hi5) was used, and the reference substance was ^3H-aldosterone.

androgen receptor [2] = target: T2, androgen receptor (Homo sapiens (Human), UniProt P10275); settings: for IC50: read-out: Androgen receptor IC50, receptor binding, 3H-testosterone displacement; for Androgen receptor Competition factor: reference substance 3H-testosterone
Method: 3. Androgen Receptor Binding Test:
The test was carried out as in 1., with the following modifications: cytosol from androgen receptor-expressing insect cells (Hi5) was used, and the reference substance was ^3H-testosterone.

[3] = target: T1, mineralocorticoid receptor; experiment: Antimineralocorticoid action by transactivation test (MDCK luciferase reporter cells); format: cell-based; settings: in-vitro transactivation, 1 nM aldosterone; for IC50: read-out: Mineralocorticoid receptor Antagonism IC50
Method: 5. Determination of Antimineralocorticoid Action by Means of Transactivation Tests:
The antimineralocorticoid activity of the test substances was determined as for the transactivation tests described above.
The following modifications were undertaken: In this case reporter cell lines were used (MDCK cells) that express the human mineralocorticoid receptor, and transiently contain a reporter construct that contains luciferase under the control of a steroid hormone-responsive promoter.
For determination of antimineralocorticoid efficacy, 1 nM aldosterone (SIGMA A-6628, Lot 22H4033) was added to the cells, to achieve almost maximum stimulation of the reporter gene. Inhibition of the effect indicated a mineralocorticoid-antagonistic action of the substances (Table 2; for comparison, corresponding values for drospirenone (A)).

androgen receptor [4] = target: T2, androgen receptor; experiment: cell-based; settings: for Androgen receptor Agonism efficacy / Androgen receptor Antagonism efficacy: in-vitro transactivation, PC3 cells; for Androgen receptor Antagonism efficacy: 0.05 nM R1881
Method: 6. Determination of Androgenic/Antiandrogenic Action by Means of Transactivation Tests:
The androgenic/antiandrogenic action of the test substances was determined as for the transactivation tests described above.
The following modifications were made: In this case reporter cell lines were used (PC3 cells) that express the androgen receptor, and a reporter construct that contains luciferase under the control of a steroid hormone-responsive promoter.
For determination of the antiandrogenic efficacy, 0.05 nM R1881 was added to the cells, in order to achieve almost maximum stimulation of the reporter gene.

[5] = target: fusion protein from the PR-ligand-binding domain and a Gal4-transactivation domain (Homo sapiens (Human), UniProt P06401); experiment: cell-based; settings: for Progesterone receptor Agonism efficacy / Progesterone receptor Agonism EC50: in-vitro transactivation, CHO K1 reporter cells; for Progesterone receptor Agonism EC50: 16 hours
Method: 4. Determination of Progestational Action by Means of Transactivation Tests:
The test compounds were added eight hours later, and the cells were incubated with the compounds for 16 hours. The tests were carried out in triplicate. At the end of incubation the medium containing the effector was removed and replaced with lysis buffer. After luciferase assay substrate (Promega, #E1501) had been added, the 96-well plates were then put in a microplate luminometer (Pherastar, BMG Labtech), and the luminescence was measured. The IC50 values were evaluated using software for calculating dose-effect relations.

progesterone receptor = progesterone receptor (Homo sapiens (Human), UniProt P06401); settings: for Progesterone receptor (PR) Competition factor: CF of 1 = affinity of progesterone, CF >1 lower affinity; for IC50: read-out: Progesterone receptor (PR) IC50, receptor binding, 3H-progesterone displacement; for CF PR/CF MR: ratio of the competition factors CF(PR) and CF(MR)
Sequence of progesterone receptor (P06401 whole entry, species assumed): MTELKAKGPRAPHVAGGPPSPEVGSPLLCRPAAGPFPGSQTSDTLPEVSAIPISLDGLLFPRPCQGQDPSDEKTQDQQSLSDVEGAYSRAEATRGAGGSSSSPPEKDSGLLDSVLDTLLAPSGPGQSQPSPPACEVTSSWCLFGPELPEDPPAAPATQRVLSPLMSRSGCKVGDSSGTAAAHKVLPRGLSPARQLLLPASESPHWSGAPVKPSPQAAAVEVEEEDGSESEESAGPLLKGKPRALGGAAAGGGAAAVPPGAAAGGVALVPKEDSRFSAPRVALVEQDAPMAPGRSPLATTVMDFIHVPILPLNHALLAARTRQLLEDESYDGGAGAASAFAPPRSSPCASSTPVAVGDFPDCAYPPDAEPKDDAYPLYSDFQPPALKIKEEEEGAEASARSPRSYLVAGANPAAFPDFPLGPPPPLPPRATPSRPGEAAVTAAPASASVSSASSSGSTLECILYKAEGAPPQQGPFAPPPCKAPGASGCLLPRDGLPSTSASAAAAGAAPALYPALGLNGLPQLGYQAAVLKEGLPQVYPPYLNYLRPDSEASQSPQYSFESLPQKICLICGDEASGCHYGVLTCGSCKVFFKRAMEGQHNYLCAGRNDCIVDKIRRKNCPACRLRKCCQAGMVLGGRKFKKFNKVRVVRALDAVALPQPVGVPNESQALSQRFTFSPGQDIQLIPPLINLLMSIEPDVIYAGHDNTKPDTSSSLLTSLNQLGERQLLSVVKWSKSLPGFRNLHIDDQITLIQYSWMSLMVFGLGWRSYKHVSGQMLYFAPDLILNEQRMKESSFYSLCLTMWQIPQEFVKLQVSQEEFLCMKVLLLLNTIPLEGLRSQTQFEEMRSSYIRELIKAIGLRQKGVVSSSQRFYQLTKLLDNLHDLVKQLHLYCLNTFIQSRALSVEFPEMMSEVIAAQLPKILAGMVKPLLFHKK
Method: Progesterone Receptor Binding Test:
Using cytosol from progesterone receptor-expressing insect cells (Hi5), competitive binding to the progesterone receptor was determined from the ability to displace ^3H-progesterone as reference substance from the receptor.

T1 sequence (P08235 whole entry): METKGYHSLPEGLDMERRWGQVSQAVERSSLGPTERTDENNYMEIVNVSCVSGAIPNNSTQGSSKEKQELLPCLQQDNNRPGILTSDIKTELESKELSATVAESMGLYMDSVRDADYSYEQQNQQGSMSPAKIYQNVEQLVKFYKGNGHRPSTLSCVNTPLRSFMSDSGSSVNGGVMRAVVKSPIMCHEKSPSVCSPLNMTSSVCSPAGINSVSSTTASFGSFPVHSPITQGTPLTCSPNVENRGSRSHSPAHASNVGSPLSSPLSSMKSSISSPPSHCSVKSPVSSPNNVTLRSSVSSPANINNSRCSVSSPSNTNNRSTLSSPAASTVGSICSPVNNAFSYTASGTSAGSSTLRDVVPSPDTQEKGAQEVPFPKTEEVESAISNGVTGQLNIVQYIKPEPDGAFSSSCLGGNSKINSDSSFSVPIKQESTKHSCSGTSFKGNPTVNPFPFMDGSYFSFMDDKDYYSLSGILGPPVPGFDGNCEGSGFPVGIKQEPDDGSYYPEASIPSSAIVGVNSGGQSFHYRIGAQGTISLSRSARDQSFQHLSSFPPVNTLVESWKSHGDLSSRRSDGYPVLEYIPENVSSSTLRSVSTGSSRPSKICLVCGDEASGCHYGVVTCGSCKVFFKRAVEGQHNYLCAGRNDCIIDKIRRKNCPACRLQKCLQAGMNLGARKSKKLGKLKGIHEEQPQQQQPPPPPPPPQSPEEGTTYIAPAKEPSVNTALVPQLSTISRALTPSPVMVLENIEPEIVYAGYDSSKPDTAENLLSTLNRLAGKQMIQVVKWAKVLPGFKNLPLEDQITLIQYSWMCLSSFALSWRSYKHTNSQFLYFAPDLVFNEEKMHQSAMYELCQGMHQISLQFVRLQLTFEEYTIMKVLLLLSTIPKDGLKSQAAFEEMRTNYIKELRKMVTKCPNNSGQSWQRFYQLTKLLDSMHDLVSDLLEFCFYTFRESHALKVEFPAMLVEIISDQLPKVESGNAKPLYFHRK
T2 sequence (P10275 whole entry, species assumed): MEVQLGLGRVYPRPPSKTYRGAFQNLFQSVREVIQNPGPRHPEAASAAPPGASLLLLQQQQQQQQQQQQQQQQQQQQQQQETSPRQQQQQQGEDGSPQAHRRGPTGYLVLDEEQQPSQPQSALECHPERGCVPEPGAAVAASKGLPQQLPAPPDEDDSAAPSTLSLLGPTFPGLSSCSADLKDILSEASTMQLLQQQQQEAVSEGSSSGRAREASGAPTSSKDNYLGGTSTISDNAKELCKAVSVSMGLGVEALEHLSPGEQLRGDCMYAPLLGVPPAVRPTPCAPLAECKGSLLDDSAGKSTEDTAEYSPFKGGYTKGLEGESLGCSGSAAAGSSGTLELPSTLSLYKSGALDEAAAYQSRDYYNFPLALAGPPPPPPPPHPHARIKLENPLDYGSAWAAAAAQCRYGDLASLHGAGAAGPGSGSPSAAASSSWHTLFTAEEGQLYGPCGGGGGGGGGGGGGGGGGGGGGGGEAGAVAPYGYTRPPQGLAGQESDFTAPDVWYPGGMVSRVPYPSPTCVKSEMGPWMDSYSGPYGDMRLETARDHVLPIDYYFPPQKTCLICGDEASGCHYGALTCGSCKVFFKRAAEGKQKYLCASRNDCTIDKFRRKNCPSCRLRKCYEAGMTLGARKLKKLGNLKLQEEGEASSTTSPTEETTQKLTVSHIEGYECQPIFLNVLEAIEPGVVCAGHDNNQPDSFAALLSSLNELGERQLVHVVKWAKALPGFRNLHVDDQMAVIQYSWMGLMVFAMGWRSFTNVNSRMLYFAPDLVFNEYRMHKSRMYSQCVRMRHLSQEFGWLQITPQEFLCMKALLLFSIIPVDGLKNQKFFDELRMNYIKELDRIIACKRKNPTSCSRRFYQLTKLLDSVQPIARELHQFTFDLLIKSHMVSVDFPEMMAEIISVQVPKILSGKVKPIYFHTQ
Sequence of fusion protein from the PR-ligand-binding domain and a Gal4-transactivation domain (P06401 679-913): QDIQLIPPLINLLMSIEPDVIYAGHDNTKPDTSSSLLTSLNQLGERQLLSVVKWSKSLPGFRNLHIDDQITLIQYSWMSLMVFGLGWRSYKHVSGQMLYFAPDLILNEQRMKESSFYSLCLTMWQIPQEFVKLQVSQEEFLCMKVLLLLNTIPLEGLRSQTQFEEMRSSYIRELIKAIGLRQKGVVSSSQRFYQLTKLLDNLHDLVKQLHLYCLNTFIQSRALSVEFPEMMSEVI

| Structure (SMILES) | Mineralocorticoid receptor (MR) Competition factor [1] | IC50 (androgen receptor [2]) [µM] | Androgen receptor Competition factor (androgen receptor [2]) | Mineralocorticoid receptor Antagonism efficacy [3] [%] | IC50 [3] [µM] | EC50 (androgen receptor [4]) [µM] | IC50 (androgen receptor [4]) [µM] | Androgen receptor Agonism efficacy (androgen receptor [4]) [%] | Androgen receptor Antagonism efficacy (androgen receptor [4]) [%] | EC50 [5] [µM] | Progesterone receptor Agonism efficacy [5] [%] | Progesterone receptor (PR) Competition factor (progesterone receptor) | IC50 (progesterone receptor) [µM] | CF PR/CF MR (progesterone receptor) | Progesterone receptor Agonism EC50 [5] | Mineralocorticoid receptor Antagonism IC50 [3] |
| --- | --- | --- | --- | --- | --- | --- | --- | --- | --- | --- | --- | --- | --- | --- | --- | --- |
| C[C@]12CC[C@H]3[C@@H](C=CC4=CC(=O)CC[C@@H]43)[C@@H]1CC[C@@]21C=CC(=O)O1 (stereo in doubt) [Example 1, 17β-Hydroxy-19-nor-17α-pregna-4,6,20(Z)-trien-3-one-21-carboxylic acid γ-lactone] | 33.0 | 10 | 1000.0 | 93.2 | 0.87 | 0.13 | 1 | 44.27 | 5 | – | – | – | – | – | – | – |
| C[C@@H]1CC2=CC(=O)CC[C@@H]2[C@H]2CC[C@@]3(C)[C@@H](CC[C@@]34C=CC(=O)O4)[C@@H]21 (stereo in doubt) [Example 2A, 17β-Hydroxy-7α-methyl-19-nor-17α-pregna-4,20(Z)-dien-3-one-21-carboxylic acid γ-lactone] | 7.6 | – | – | 129.8 | 0.18 | – | – | – | – | 0.22 | 44.4 | 8.33 | 0.31 | – | – | – |
| CC[C@@H]1CC2=CC(=O)CC[C@@H]2[C@H]2CC[C@@]3(C)[C@@H](CC[C@@]34C=CC(=O)O4)[C@H]12 (stereo in doubt) [Example 3A, 17β-Hydroxy-7α-ethyl-19-nor-17α-pregna-4,20(Z)-dien-3-one-21-carboxylic acid γ-lactone] | 8.7 | 0.089 | 2.8 | 55.9 | 0.36 | 0.025 | 0.011 | 30.25 | 41.26 | 0.78 | 16.2 | 54.22 | 1.3 | 6.23 | – | – |
| C=C[C@@H]1CC2=CC(=O)CC[C@@H]2[C@H]2CC[C@@]3(C)[C@@H](CC[C@@]34C=CC(=O)O4)[C@@H]21 (stereo in doubt) [Example 4A, 17β-Hydroxy-7α-vinyl-19-nor-17α-pregna-4,20(Z)-dien-3-one-21-carboxylic acid γ-lactone] | 18.7 | 0.13 | 4.7 | 120.0 | 0.028 | 0.013 | 1 | 53.6 | 5 | 0.14 | 67.5 | 27.47 | 0.76 | 1.47 | – | – |
| C[C@]12CC[C@H]3[C@@H](CCC4=CC(=O)CC[C@@H]43)[C@@H]1CC1(CC1)[C@@]21C=CC(=O)O1 (stereo in doubt) [Example 5, 16,16-(1,2-Ethanediyl)-17β-hydroxy-19-nor-17α-pregna-4,20(Z)-dien-3-one-21-carboxylic acid γ-lactone] | 12.7 | 0.31 | 33.8 | 73.1 | 0.84 | 0.14 | 1 | 37.8 | 5 | 0.013 | 46.9 | 3.31 | 0.11 | 0.26 | – | – |
| CC[C@]12CC[C@H]3[C@@H](CCC4=CC(=O)CC[C@@H]43)[C@@H]1CC[C@@]21C=CC(=O)O1 (stereo in doubt) [Example 6, 17β-Hydroxy-18-methyl-19-nor-17α-pregna-4,20(Z)-dien-3-one-21-carboxylic acid γ-lactone] | 2.4 | 0.028 | 3.4 | 109.6 | 0.012 | 0.053 | 0.019 | 59.8 | 33.8 | – | – | 3.07 | 0.045 | 1.28 | – | – |
| CC[C@]12CC[C@H]3[C@@H](C=CC4=CC(=O)CC[C@@H]43)[C@@H]1CC[C@@]21C=CC(=O)O1 (stereo in doubt) [Example 7, 17β-Hydroxy-18-methyl-19-nor-17α-pregna-4,6,20(Z)-trien-3-one-21-carboxylic acid γ-lactone] | 3.9 | 2.6 | 112.0 | 94.2 | 0.1 | 1 | 0.1 | 5 | 59.23 | – | – | 6.15 | 0.11 | 1.58 | inactive | – |
| C[C@]12CCC(=O)C=C1[C@@H]1C[C@@H]1[C@H]1[C@@H]3[C@@H]4C[C@@H]4[C@@]4(CCC(=O)O4)[C@@]3(C)CC[C@@H]12 [A, 6β,7β;15γ,16β-dimethylene-3-oxo-17-pregn-4-ene-21,17β-carbolactone, reference compound] | – | – | – | 64.1 | – | – | – | – | – | – | 72.2 | – | – | – | – | – |
| CC[C@]12CC[C@H]3[C@@H](C[C@@H](CO)C4=CC(=O)CC[C@@H]43)[C@@H]1CC[C@@]21C=CC(=O)O1 [Example 15] | – | – | – | – | – | 1 | 1 | 5 | 5 | – | – | – | – | – | inactive | inactive |
| CC[C@]12CC[C@H]3[C@@H](CC4(CC4)C4=CC(=O)CC[C@@H]43)[C@@H]1CC[C@@]21C=CC(=O)O1 [Example 16, 6,6-(1,2-Ethanediyl)-17β-hydroxy-18-methyl-19-nor-17α-pregna-4,20(Z)-dien-3-one-21-carboxylic acid γ-lactone] | – | – | – | 107.9 | 0.075 | 0.0011 | 1 | 91.19 | 5 | – | – | – | – | – | – | – |
| C[C@]12CC[C@H]3[C@@H](C[C@@H](CO)C4=CC(=O)CC[C@@H]43)[C@@H]1CC[C@@]21C=CC(=O)O1 [Example 17, 17β-Hydroxy-6β-hydroxymethylene-19-nor-17α-pregna-4,20(Z)-dien-3-one-21-carboxylic acid γ-lactone] | – | – | – | – | – | – | – | – | – | – | – | – | – | – | inactive | inactive |
| C[C@]12CC[C@H]3[C@@H](CC4(CC4)C4=CC(=O)CC[C@@H]43)[C@@H]1CC[C@@]21C=CC(=O)O1 [Example 18, 6,6-(1,2-Ethanediyl)-17β-hydroxy-19-nor-17α-pregna-4,20(Z)-dien-3-one-21-carboxylic acid γ-lactone] | – | – | – | 89.3 | 0.52 | 0.0037 | 1 | 87.91 | 5 | – | – | – | – | – | – | – |
